Experimental data reported in article PMC7737538 (ACS Medicinal Chemistry Letters, 2020).

Experiments:
[1] = test system: Vero cells; conditions: readout not given
[2] = test system: SARS-CoV-2 (two clinical isolates); test: SARS-CoV-2 antiviral assay in Vero cells, statements without strain; assay type: cell-based
[3] = test system: HCMV AD-169 strain; test: HCMV antiviral assay in HEL fibroblasts, AD-169 strain; assay type: cell-based, human cytomegalovirus; conditions: strain not given
[4] = test system: VZV TK+ strain (strain Oka); assay type: cell-based, varicella zoster virus; conditions: HEL fibroblasts; strain not given
[5] = in vitro; conditions: human
[6] = test system: human rhinovirus (HRV); conditions: read-out: EC50 against human rhinovirus (HRV); in vitro; cited from earlier work

SMILES	cytotoxicity in Vero cells (in words) [1]	antiviral activity against SARS-CoV-2 (in words) [2]	activity against HCMV (in words) [3]	activity against VZV (in words) [4]	also measured
CO[C@]1(COP(=O)(N[C@@H](C)C(=O)OCc2ccccc2)Oc2ccccc2)O[C@@H](n2ccc(N)nc2=O)C(F)(F)[C@@H]1O (some centres unmarked) [2a]	devoid of antiviral activity and cytotoxicity	devoid of antiviral activity			
CO[C@]1(CO)O[C@@H](n2ccc(=O)[nH]c2=O)C(F)(F)[C@@H]1O [12a]			completely devoid of activity	completely devoid of activity	
Nc1nc(O)c2ncn(COC(CO)CO)c2n1 [ganciclovir]					CC50 [5]: 231 ± 49.2 µM
Nc1ccn([C@@H]2O[C@H](CO)[C@@H](O)C2(F)F)c(=O)n1 [gemcitabine, 2′-deoxy-2′,2′-difluorocytidine, reference compound]	high cytotoxicity				EC50 [6]: 0.81 to 1.92 µM
Nc1ccn(C[C@@H](CO)OCP(=O)(O)O)c(=O)n1 [cidofovir]					CC50 [5]: 150 ± 29.1 µM
C[C@H](NP(=O)(OC[C@H]1O[C@@H](n2ccc(N)nc2=O)C(F)(F)[C@@H]1O)Oc1ccccc1)C(=O)OCc1ccccc1 (stereo partly drawn) [2c, Benzyl ((((2R,3R,5R)-5-(4-Amino-2-oxopyrimidin-1(2H)-yl)-4,4-difluoro-3-hydroxytetrahydrofuran-2-yl)methoxy)(phenoxy)phosphoryl)-L-alaninate]		lack of activity			
C[C@H](NP(=O)(OC[C@@]1(F)O[C@@H](n2ccc(N)nc2=O)C(F)(F)[C@@H]1O)Oc1ccccc1)C(=O)OCc1ccccc1 (some centres unmarked) [2b]		minimal antiviral activity			
CO[C@]1(CO)O[C@@H](n2ccc(N)nc2=O)C(F)(F)[C@@H]1O [1a]	devoid of antiviral activity and cytotoxicity	devoid of antiviral activity	completely devoid of activity	completely devoid of activity	
O=c1ccn([C@@H]2O[C@](F)(CO)[C@@H](O)C2(F)F)c(=O)[nH]1 [12b]			completely devoid of activity	completely devoid of activity	
Nc1ccn([C@@H]2O[C@](F)(CO)[C@@H](O)C2(F)F)c(=O)n1 [1b]		no selective antiviral activity			
